Assay results from patent US5100913A, “Novel sulfonylphenyl-β-D-thioxylosides, their method of preparation and their use in therapeutics” (Fournier Industrie et Sante, priority 1990, dated 1992).

The compounds below were run on venous thrombosis (assay: antithrombotic activity, venous thrombosis: venous stasis under hypercoagulation (Wessler), thrombus removed and weighed). Settings: Rattus norvegicus, oral, suspension in PEG 400, thrombosis induced 4 hours after treatment.
Type: in vivo, male Wistar rats
Procedure: A venous stasis under hypercoagulation is produced according to the technique described by WESSLER et al. (J. Applied Physiol. 1959, p. 943-946). As in the technique described by J. HAUPMAN et al. (Thrombosis and Haemostasis 43(2), 1980, p. 118), the hypercoagulant used is a solution of activated factor X (Xa) supplied by Flow Laboratories (71 Knat per 12.5 ml of isotonic solution).
The study is performed on unfasted male Wistar rats weighing 250 to 280 g, divided into groups of 10 animals each. The test products are administered orally as a suspension in PEG 400. A thrombosis is induced 4 hours after this treatment and the thrombus formed is removed and weighed.
The results obtained at a dose of 3 mg/kg, administered orally, have been collated in Table I. The results obtained with the known products of the afore-mentioned prior art have also been collated in this Table.
O=S(=O)(c1ccc(S[C@@H]2SC[C@@H](O)[C@H](O)[C@H]2O)cc1)N1CCCCC1 [Example 22, 4-(N-(piperidin-1-yl)sulfonamidyl)phenyl 1,5-dithio-β-D-xylpyranoside] gave an inhibition in vivo at 3 mg/kg of 47%.
For CC(=O)O[C@@H]1[C@@H](OC(C)=O)[C@H](Sc2ccc(S(=O)(=O)c3ccc(F)cc3)cc2)SC[C@H]1OC(C)=O [Example 13], the inhibition in vivo at 3 mg/kg was 58%.
Work on CS(=O)(=O)c1ccc(O[C@@H]2SC[C@@H](O)[C@H](O)[C@H]2O)cc1 [Example 8, 4-(methylsulfonyl)phenyl 5-thio-β-D-xylpyranoside] yielded an inhibition in vivo at 3 mg/kg of 30%.
In the case of O=S(=O)(c1ccc(F)cc1)c1ccc(S[C@@H]2SC[C@@H](O)[C@H](O)[C@H]2O)cc1 [Example 14, 4-[(4-fluorophenyl)sulfonyl]phenyl 1,5-dithio-β-D-xylpyranoside], the inhibition in vivo at 3 mg/kg was 61%.
Work on CN(C)S(=O)(=O)c1ccc(O[C@@H]2SC[C@@H](O)[C@H](O)[C@H]2O)cc1 [Example 20, 4-(N,N-dimethylsulfonamidyl)phenyl 5-thio-β-D-xylpyranoside] yielded an inhibition in vivo at 3 mg/kg of 58%.
Compound CC(=O)O[C@@H]1[C@@H](OC(C)=O)[C@H](Sc2ccccc2S(C)(=O)=O)SC[C@H]1OC(C)=O [Example 3, 2-(methylsulfonyl)phenyl 2,3,4-tri-O-acetyl-1,5-dithio-β-D-xylopyranoside] has an inhibition in vivo at 3 mg/kg of 29%.
Work on CS(=O)(=O)c1ccc(S[C@@H]2SC[C@@H](O)[C@H](O)[C@H]2O)cc1 [Example 6, 4-(methylsulfonyl)phenyl 1,5-dithio-β-D-xylopyranoside] yielded an inhibition in vivo at 3 mg/kg of 61%.
Compound CCS(=O)(=O)c1ccc(S[C@@H]2SC[C@@H](OC(C)=O)[C@H](OC(C)=O)[C@H]2OC(C)=O)cc1 [Example 9, 4-(ethylsulfonyl)phenyl 2,3,4-tri-O-acetyl-1,5-dithio-β-D-xylpyranoside] has an inhibition in vivo at 3 mg/kg of 31%.
CC(=O)O[C@@H]1[C@@H](OC(C)=O)[C@H](Sc2ccc(S(=O)(=O)N(C)C)cc2)SC[C@H]1OC(C)=O [Example 17, 4-(N,N-dimethylsulfonamidyl)phenyl 2,3,4-tri-O-acetyl-1,5-dithio-β-D-xylpyranoside] showed an inhibition in vivo at 3 mg/kg of 56%.
CC(=O)O[C@@H]1[C@@H](OC(C)=O)[C@H](Sc2ccc(S(=O)(=O)c3ccccc3)cc2)SC[C@H]1OC(C)=O [Example 1, 4-(phenylsulfonyl)phenyl 2,3,4-tri-O-acetyl-1,5-dithio-β-D-xylopyranoside] showed an inhibition in vivo at 3 mg/kg of 20%.
CS(=O)(=O)c1cccc(S[C@@H]2SC[C@@H](O)[C@H](O)[C@H]2O)c1 [Example 12] was tested, and the inhibition in vivo at 3 mg/kg was 43%.
Compound CCS(=O)(=O)c1ccc(S[C@@H]2SC[C@@H](O)[C@H](O)[C@H]2O)cc1 [Example 10, 4-(ethylsulfonyl)phenyl 1,5dithio-β-D-xylopyranoside] has an inhibition in vivo at 3 mg/kg of 31%.
O=S(=O)(c1ccccc1)c1ccc(S[C@@H]2SC[C@@H](O)[C@H](O)[C@H]2O)cc1 [Example 2, 4-(phenylsulfonyl)phenyl 1,5-dithio-β-D-xylopyranoside] showed an inhibition in vivo at 3 mg/kg of 49%.
Compound CN(C)S(=O)(=O)c1ccc(S[C@@H]2SC[C@@H](O)[C@H](O)[C@H]2O)cc1 [Example 18, 4-(N,N-dimethylsulfonamidyl)phenyl 1.5-dithio-β-D-xylopyranoside] has an inhibition in vivo at 3 mg/kg of 46%.
For CC(=O)O[C@@H]1[C@@H](OC(C)=O)[C@H](OC(C)=O)CS[C@H]1Oc1ccc(S(=O)(=O)N(C)C)cc1 [Example 19, 4-(N,N-dimethylsulfonamidyl)phenyl 2,3,4-tri-O-acetyl-5-thio-β-D-xylpyranoside], the inhibition in vivo at 3 mg/kg was 23%.
Compound N#Cc1ccc(S(=O)(=O)c2ccc(S[C@@H]3SC[C@@H](O)[C@H](O)[C@H]3O)cc2)cc1 [Example 16, 4-((4-cyanophenyl)sulfonyl)phenyl 1,5-dithio-β-D-xylopyranoside] has an inhibition in vivo at 3 mg/kg of 66%.
CS(=O)(=O)c1ccccc1S[C@@H]1SC[C@@H](O)[C@H](O)[C@H]1O [Example 4, 2-(methylsulfonyl)phenyl 1.5-dithio-β-D-xylopyranoside] showed an inhibition in vivo at 3 mg/kg of 26%.
